{
  "source": "patent US8552064B2",
  "about": "“Suramin and derivatives thereof as topical microbicide and contraceptive” (Eastern Virginia Medical School, priority 2005, dated 2013)",
  "key": {"[1]": {"system": "sperm penetration in cervical mucus", "assay": "Modified One End Test (MOET), sperm penetration in bovine cervical mucus", "assay_type": "cell-based", "excerpt": "Bovine cervical mucus was obtained from Humagen (Charlottesville, Va.) in the form of prepackaged flat capillary tubes (Penetrak®), kept frozen and thawed right prior to the experiment. The Modified One End Test (MOET) [(described in Doncel G. F., in “Barrier Contraceptives”, Wiley-Liss, Mauck C. K. et al. eds., pp. 147-162 (1994)] was used to determine the effect of compounds, such as suramin sodium described herein, on sperm penetration in cervical mucus. Each of the test compositions containing the compound to be tested were diluted in a saline solution, i.e., at 9 grams of NaCl per liter of water. Tubes of cervical mucus were broken open. The open end was placed in a container containing the test compound in saline. The test compound was allowed to diffuse for 30 minutes through the tube. A semen sample, obtained from normal healthy donors, was then diluted with a buffer solution to 60 million motile sperm per milliliter and mixed with the test compound sample (i.e., suramin sodium). The tube containing the test compound sample was then re-inserted into the container containing the mixed solution and stored in an incubator at 37° C. in an atmosphere of 5 percent carbon dioxide in air for 60 minutes. The container and tube were then removed from the incubator and the tube was visually analyzed under a microscope for the migration of motile vanguard sperm through the tube. The results are expressed as percentage of migration as compared to control samples. In the control samples, the tubes were incubated with saline containing no compound. […]"}, "HIV-1 IIIB": {"system": "HIV-1 IIIB", "assay": "Virus binding inhibition assay VBIA-IIIB in MT-2 cells", "assay_type": "cell-based", "experimental": "VBIAIIIB: MT-2 cells, compounds and virus (HIV-1 IIIB) were mixed together in 96-well plates and incubated for 2 h at 37° C. At the end of this incubation period, the 96-well plates were centrifuged for 10 minutes and approximately 175 μL of medium was removed using a multichannel pipettor and replaced with 175 μL of fresh media. […] Modulation of virus induced cytopathic effects was measured by determining percent reduction in optical density (O.D.) using an XTT (2,3-bis(2-methoxy-4-nitro-5-sulfophenyl)-5-[phenylamino)carbonyl]-2H-tetrazolium hydroxide) dye reduction assay. Virus-induced cytopathic effects and mechanical artifacts due to media removal were verified by microscopic observations (Anderson R. A., et al., J. Androl., 21: 862-875 (2000)). The results of this assay are provided herein."}, "[2]": {"system": "HIV-1 transmission from H9-SK1 cells to ME-180 cervical epithelial cells", "assay": "ME-180-based topical microbicide assay (CD4-independent epithelial cell transmission)", "experimental": "ME-180 cervical epithelial cells were plated in the interior wells of a 96-well flat bottom microtiter plate at a density of 5×10^3 cells per well and incubated overnight. Chronically infected H9 cells (H9-SK1) were treated with 200 μg/ml mitomycin C (Sigma) in complete medium for one hour, washed extensively and resuspended at 4×10^5 per ml. […] Antiviral compounds and chronically infected cells (2×10^4 cells) were added to each well containing ME-180 cells and incubated for 6 hours. Following co-cultivation, the monolayer was washed extensively and fresh medium was added. Medium was removed and fresh medium was added at 24 and 48 hours post-infection to remove dead lymphocytes. On day 6 post-infection, supernatant samples were removed and analyzed for virus content by p24 ELISA (Phillips D M et al., 1995, J Virol Methods, March, 52 (1-2): 1-13)."}, "HSV-2": {"system": "HSV-2", "assay": "HSV plaque assay, HSV-2", "assay_type": "cell-based, HSV (type 2 strain 333)", "experimental": "Evaluation of anti-HSV activity of suramin was based on the method described by Herold et al., J. Virol., 70: 3461-3469 (1996). The compound was serially diluted (1000 μg/ml to 1.0 μg/ml) in phosphate-buffered saline (PBS), and each dilution was mixed with each of two serial dilutions (10^−5 and 10^−6) HSV (type 2 strain 333). Working viral titers were […]. Samples (1 ml) of each mixture were plated in duplicate on washed and drained confluent monolayers of CaSki cells (a human cervical epithelial cell line, obtained from the American Type Culture Collection, Rockville, Md.) on the bottoms of 25 cm^2 flasks. Initial titer (indicated in the control cultures with no added test agent) in each culture was given as pfu/ml. The flasks were incubated for 2 hours, after which the medium (containing virus and test compound) was removed and the cells were washed with PBS. Cells were cultured for 3 days in medium 199, supplemented with 1% serum and 0.5% methyl cellulose that contained anti-HSV antibodies to prevent the formation of secondary plaques. Cells were stained with Giemsa for the counting of viral plaques by phase contrast microscopy. The viral titer was inferred from the number of plaques, after correction for dilutions. Values were corrected to a control titer 5×10^8 pfu/ml. Data were expressed as viral titer and as the percentage of plaques that are counted in control cell cultures (not exposed to test agent). […] The concentration of the compound that was required to reduce the viral titer by 50% (IC50) was estimated with curve-fitting software (TableCurve 2D, version 3.02) from plots of plaque-forming units (pfu) per ml as a function of concentration of the compound."}, "HSV-1": {"system": "HSV-1", "assay": "HSV plaque assay, HSV-1", "assay_type": "cell-based", "details": "Human alphaherpesvirus 1; read-out: IC50 against HSV-1"}, "[3]": {"assay": "Pharmacokinetics in female rats, intravenous and intravaginal", "assay_type": "in vivo, rat", "details": "for Vd: read-out: Vdss", "experimental": "Female rats (n=6) were administered with 30 mg of compound per kg in a single I.V. dose in saline or intravaginally, BID, for 5 days, formulated in KY jelly. The selected single dose represented 10 times the estimated human dose (250 mg). […] Following intravenous administration, relatively high concentrations of suramin sodium (mean value=563 μg/mL) were measured in plasma at 1 hour (first time-point) following the onset of dosing. […] The mean volume of distribution was calculated at 147 mL/kg."}, "[4]": {"details": "female, rat, plasma, IV: single dose 30 mg/kg"}, "[5]": {"details": "female, rat, plasma, IVag: 30 mg/kg BID for 5 days"}},
  "note": "Where two headings read alike, the source gives them in different places.",
  "data": [
    {"molecule": "Cc1ccc(C(=O)Nc2ccc(S(=O)(=O)O)c3cc(S(=O)(=O)O)cc(S(=O)(=O)O)c23)cc1NC(=O)c1cccc(NC(=O)Nc2cccc(C(=O)Nc3cc(C(=O)Nc4ccc(S(=O)(=O)O)c5cc(S(=O)(=O)O)cc(S(=O)(=O)O)c45)ccc3C)c2)c1", "note": "[Suramin, 8,8′-(carbonylbis(imino-3,1-phenylenecarbonylimino(4-methyl-3,1-phenylene)carbonylimino))bis-1,3,5-naphthalene trisulfonic acid]", "values": [
      {"measurement": "MOET % CTL", "setting": "[1]; 6.25 mg/ml", "value": "96.1 ± 0.9", "unit": "% CTL"},
      {"measurement": "MOET % CTL", "setting": "[1]; 12.5 mg/ml", "value": "94.9 ± 2.2", "unit": "% CTL"},
      {"measurement": "sperm impediment in MOET", "setting": "[1]; 25 mg/mL or below", "value": "No significant sperm impediment"},
      {"measurement": "MOET % CTL", "setting": "[1]; 25 mg/ml", "value": "95.9 ± 1.4", "unit": "% CTL"},
      {"measurement": "inhibition of sperm penetration in MOET", "setting": "[1]; 50 mg/mL (5%)", "value": "only minor inhibition of sperm penetration"},
      {"measurement": "MOET % CTL", "setting": "[1]; 50 mg/ml", "value": "72.3 ± 7.1", "unit": "% CTL"},
      {"measurement": "degree of inhibition of sperm penetration", "setting": "[1]; KY, suramin sodium in KY and suramin sodium alone at the same concentration", "value": "~4", "unit": "%"},
      {"measurement": "Potency, HIV-1 VBIA-IIIb", "setting": "HIV-1 IIIB", "value": "High"},
      {"measurement": "IC50", "setting": "HIV-1 IIIB; Human immunodeficiency virus 1, IIIB, MT2, 72 hours incubation, read-out: IC50 against IIIB, viral entry assay", "value": 7.3, "unit": "µg/mL"},
      {"measurement": "Potency, HIV-1 ME-180", "setting": "[2]", "value": "High"},
      {"measurement": "IC50", "setting": "[2]; Human immunodeficiency virus 1, ME-180, CD4-independent epithelial cell transmission", "value": 24.5, "unit": "µg/mL"},
      {"measurement": "effect of mucin on activity in ME-180 assay", "setting": "[2]; addition of mucin", "value": "did not significantly reduce suramin's activity"},
      {"measurement": "Potency, HSV-2 Plaque", "setting": "HSV-2", "value": "High"},
      {"measurement": "inhibition at 100 µg/mL", "setting": "HSV-2; Human alphaherpesvirus 2, 100 μg/mL, read-out: inhibition of viral infectivity, plaque assay", "value": 100, "unit": "%"},
      {"measurement": "IC50", "setting": "HSV-2; Human alphaherpesvirus 2, read-out: IC50 against HSV-2", "value": 1, "unit": "µg/mL"},
      {"measurement": "IC50", "setting": "HSV-1", "value": 30, "unit": "µg/mL"},
      {"measurement": "clinical signs", "setting": "[3]; 30 mg/kg I.V. or intravaginally BID 5 days", "value": "No clinical signs were observed"},
      {"measurement": "t½", "setting": "[3]; IV: single dose 30 mg/kg, 30 mg/kg", "value": 68.6, "unit": "h"},
      {"measurement": "Kel", "setting": "[3]; IV: single intravenous dose of 30 mg/kg, female rats, plasma", "value": 0.0102},
      {"measurement": "t½", "setting": "[3]; IVag: 30 mg/kg BID for 5 days, listed as Suramin sodium", "value": 132, "unit": "h"},
      {"measurement": "Kel", "setting": "[3]; IVag: intravaginal 30 mg/kg BID for 5 days in KY jelly", "value": 0.005},
      {"measurement": "bioavailability after intravaginal administration", "setting": "[3]; calculated from the total dose (90 mg) administered intravaginally", "value": "< 1", "unit": "%"},
      {"measurement": "histological lesions in vagina, lungs, liver and kidneys", "setting": "[3]; female rats receiving the intravenous solution", "value": "No histological lesions were observed"},
      {"measurement": "AUC", "setting": "[3]; female, rat, plasma, 30 mg/kg, IVag: 30 mg/kg BID for 5 days, zero to 144 hr post dose, read-out: AUC(tf)", "value": 1170, "unit": "µg·h/mL"},
      {"measurement": "AUC", "setting": "[3]; female, rat, plasma, 30 mg/kg, IVag: 30 mg/kg BID for 5 days, zero to infinity, read-out: AUC(I)", "value": 2280, "unit": "µg·h/mL"},
      {"measurement": "half-life", "setting": "[3]; female, rat, plasma, 30 mg/kg, intravaginal administration, read-out: mean half-life (converted)", "value": "~132", "unit": "h"},
      {"measurement": "bioavailability", "setting": "[3]; female, rat, plasma, 90 mg, calculated from the total dose (90 mg) administered intravaginally, read-out: bioavailability after intravaginal administration", "value": 0.8, "unit": "%"},
      {"measurement": "half-life", "setting": "[3]; female, rat, plasma, iv, 30 mg/kg, IV: single dose 30 mg/kg, read-out: t½ (converted)", "value": 68.5, "unit": "h"},
      {"measurement": "AUC", "setting": "[3]; female, rat, plasma, iv, 30 mg/kg, IV: single dose 30 mg/kg, zero to 144 hr post dose, read-out: AUC(tf)", "value": 13900, "unit": "µg·h/mL"},
      {"measurement": "AUC", "setting": "[3]; female, rat, plasma, iv, 30 mg/kg, IV: single dose 30 mg/kg, zero to infinity, read-out: AUC(I)", "value": 17300, "unit": "µg·h/mL"},
      {"measurement": "clearance", "setting": "[3]; [4]", "value": 0.0292, "unit": "mL/min"},
      {"measurement": "Vd", "setting": "[3]; [4]", "value": 0.147, "unit": "L/kg"},
      {"measurement": "Cmax", "setting": "[3]; female, rat, plasma, IV: single intravenous dose of 30 mg/kg, at 1 hour", "value": 563, "unit": "µg/mL"},
      {"measurement": "clearance", "setting": "[3]; [5]", "value": 0.0001, "unit": "mL/min"},
      {"measurement": "Cmax", "setting": "[3]; female, rat, plasma, IVag: 30 mg/kg BID for 5 days, at 3.5 hours following the last dose", "value": 17.7, "unit": "µg/mL"},
      {"measurement": "Vd", "setting": "[3]; [5]", "value": 0.132, "unit": "L/kg"}
    ]}
  ]
}
